# Source: PubChem BioAssay (NCI)
# Several values for one entry are separate records, joined by “and”; a condition that tells them apart may be missing. Equal values may be shown once.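 In this assay, cells in 96-well plates receive the compound at five concentrations for 48 hours. Endpoints are linearly interpolated between the surrounding concentrations. GI50 = concentration required for 50% inhibition of growth. TGI: concentration producing complete growth inhibition.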
# Test system: DMS 273 small cell lung
# Assay: inhibition of tumour cell growth, NCI panel, 48 h
row,SMILES,TGI
1,CC1=NN(C(=O)CC(=O)Nc2ccccc2F)C(=O)C1N=Nc1ccccc1[N+](=O)[O-] (centres undefined),> 100 µM
2,CSC(=Nc1ccccc1)N(c1ccccc1)c1nc(=[N+](C)C)ss1,2.2 µM

# Test system: SK-MEL-5 melanoma
# Assay: inhibition of tumour cell growth, NCI panel, 48 h
SMILES,TGI,GI50
C(/C=C(\Nc1ccccc1)C12CC3CC(CC(C3)C1)C2)=Nc1ccccc1,28 µM,
CC1=NN(C(=O)CC(=O)Nc2ccccc2F)C(=O)C1N=Nc1ccccc1[N+](=O)[O-] (centres undefined),33.5 µM,
N#CC1=C(c2ccccc2)NNC(c2ccc(Cl)cc2)CC1=O (centres undefined),68.2 µM,
NCCNCC1CCNCC1,> 100 µM,
c1ccc2c(c1)[nH]c1c2cc[n+]2cc3c(cc12)CCCC3,3.22 µM and 5.83 µM,1.29 µM
CSC(=Nc1ccccc1)N(c1ccccc1)c1nc(=[N+](C)C)ss1,5.15 µM,

# Test system: MOLT-4 leukemia
# Assay: inhibition of tumour cell growth, NCI panel, 48 h
SMILES,TGI,GI50
C(/C=C(\Nc1ccccc1)C12CC3CC(CC(C3)C1)C2)=Nc1ccccc1,22.9 µM,
CC1=NN(C(=O)CC(=O)Nc2ccccc2F)C(=O)C1N=Nc1ccccc1[N+](=O)[O-] (centres undefined),> 100 µM,
N#CC1=C(c2ccccc2)NNC(c2ccc(Cl)cc2)CC1=O (centres undefined),> 100 µM,
NCCNCC1CCNCC1,> 100 µM,
c1ccc2c(c1)[nH]c1c2cc[n+]2cc3c(cc12)CCCC3,13.7 µM and 3.73 µM,3.74 µM
CSC(=Nc1ccccc1)N(c1ccccc1)c1nc(=[N+](C)C)ss1,7.54 µM,

# Test system: DLD-1 colon
# Assay: inhibition of tumour cell growth, NCI panel, 48 h
row,SMILES,TGI
1,CC1=NN(C(=O)CC(=O)Nc2ccccc2F)C(=O)C1N=Nc1ccccc1[N+](=O)[O-] (centres undefined),> 100 µM
2,N#CC1=C(c2ccccc2)NNC(c2ccc(Cl)cc2)CC1=O (centres undefined),> 100 µM

# Test system: SNB-78 CNS
# Assay: inhibition of tumour cell growth, NCI panel, 48 h
row,SMILES,TGI
1,CC1=NN(C(=O)CC(=O)Nc2ccccc2F)C(=O)C1N=Nc1ccccc1[N+](=O)[O-] (centres undefined),> 100 µM
2,N#CC1=C(c2ccccc2)NNC(c2ccc(Cl)cc2)CC1=O (centres undefined),> 100 µM
3,CSC(=Nc1ccccc1)N(c1ccccc1)c1nc(=[N+](C)C)ss1,21.4 µM

# Test system: NCI/ADR-RES ovarian
# Assay: inhibition of tumour cell growth, NCI panel, 48 h
SMILES,TGI,GI50
C(/C=C(\Nc1ccccc1)C12CC3CC(CC(C3)C1)C2)=Nc1ccccc1,42.5 µM,
NCCNCC1CCNCC1,> 100 µM,
c1ccc2c(c1)[nH]c1c2cc[n+]2cc3c(cc12)CCCC3,> 100 µM,93.8 µM

# Test system: ACHN renal
# Assay: inhibition of tumour cell growth, NCI panel, 48 h
row,SMILES,TGI
1,C(/C=C(\Nc1ccccc1)C12CC3CC(CC(C3)C1)C2)=Nc1ccccc1,26.4 µM
2,N#CC1=C(c2ccccc2)NNC(c2ccc(Cl)cc2)CC1=O (centres undefined),> 100 µM
3,NCCNCC1CCNCC1,> 100 µM
4,c1ccc2c(c1)[nH]c1c2cc[n+]2cc3c(cc12)CCCC3,16.1 µM and 14.1 µM
5,CSC(=Nc1ccccc1)N(c1ccccc1)c1nc(=[N+](C)C)ss1,16.9 µM

# Test system: RXF 393 renal
# Assay: inhibition of tumour cell growth, NCI panel, 48 h
SMILES,TGI,GI50
C(/C=C(\Nc1ccccc1)C12CC3CC(CC(C3)C1)C2)=Nc1ccccc1,35.4 µM,
CC1=NN(C(=O)CC(=O)Nc2ccccc2F)C(=O)C1N=Nc1ccccc1[N+](=O)[O-] (centres undefined),> 100 µM,
N#CC1=C(c2ccccc2)NNC(c2ccc(Cl)cc2)CC1=O (centres undefined),> 100 µM,
NCCNCC1CCNCC1,> 100 µM,
c1ccc2c(c1)[nH]c1c2cc[n+]2cc3c(cc12)CCCC3,12.5 µM,2.98 µM
CSC(=Nc1ccccc1)N(c1ccccc1)c1nc(=[N+](C)C)ss1,12.7 µM,

# Test system: PC-3 prostate
# Assay: inhibition of tumour cell growth, NCI panel, 48 h
row,SMILES,TGI
1,C(/C=C(\Nc1ccccc1)C12CC3CC(CC(C3)C1)C2)=Nc1ccccc1,33.1 µM
2,NCCNCC1CCNCC1,> 100 µM
3,c1ccc2c(c1)[nH]c1c2cc[n+]2cc3c(cc12)CCCC3,10.9 µM and 29 µM

# Test system: MDA-N
# Assay: inhibition of tumour cell growth, NCI panel, 48 h
row,SMILES,TGI
1,C(/C=C(\Nc1ccccc1)C12CC3CC(CC(C3)C1)C2)=Nc1ccccc1,30.9 µM
2,NCCNCC1CCNCC1,> 100 µM
3,c1ccc2c(c1)[nH]c1c2cc[n+]2cc3c(cc12)CCCC3,3.21 µM

# Test system: RPMI-8226 leukemia
# Assay: inhibition of tumour cell growth, NCI panel, 48 h
SMILES,TGI,GI50
CC1=NN(C(=O)CC(=O)Nc2ccccc2F)C(=O)C1N=Nc1ccccc1[N+](=O)[O-] (centres undefined),> 100 µM,
N#CC1=C(c2ccccc2)NNC(c2ccc(Cl)cc2)CC1=O (centres undefined),> 100 µM,
NCCNCC1CCNCC1,> 100 µM,
c1ccc2c(c1)[nH]c1c2cc[n+]2cc3c(cc12)CCCC3,6.28 µM and 3.73 µM,2.16 µM
CSC(=Nc1ccccc1)N(c1ccccc1)c1nc(=[N+](C)C)ss1,3.14 µM,

# Test system: CAKI-1 renal
# Assay: inhibition of tumour cell growth, NCI panel, 48 h
row,SMILES,TGI
1,C(/C=C(\Nc1ccccc1)C12CC3CC(CC(C3)C1)C2)=Nc1ccccc1,29.5 µM
2,CC1=NN(C(=O)CC(=O)Nc2ccccc2F)C(=O)C1N=Nc1ccccc1[N+](=O)[O-] (centres undefined),> 100 µM
3,N#CC1=C(c2ccccc2)NNC(c2ccc(Cl)cc2)CC1=O (centres undefined),> 100 µM
4,NCCNCC1CCNCC1,> 100 µM
5,c1ccc2c(c1)[nH]c1c2cc[n+]2cc3c(cc12)CCCC3,36.2 µM and 32 µM
6,CSC(=Nc1ccccc1)N(c1ccccc1)c1nc(=[N+](C)C)ss1,11.3 µM

# Test system: SF-539 CNS
# Assay: inhibition of tumour cell growth, NCI panel, 48 h
SMILES,TGI,GI50
CC1=NN(C(=O)CC(=O)Nc2ccccc2F)C(=O)C1N=Nc1ccccc1[N+](=O)[O-] (centres undefined),> 100 µM,
NCCNCC1CCNCC1,> 100 µM,
c1ccc2c(c1)[nH]c1c2cc[n+]2cc3c(cc12)CCCC3,11.7 µM and 6.7 µM,3 µM
CSC(=Nc1ccccc1)N(c1ccccc1)c1nc(=[N+](C)C)ss1,14.8 µM,

# Test system: HOP-92 NSCLC
# Assay: inhibition of tumour cell growth, NCI panel, 48 h
SMILES,TGI,GI50
C(/C=C(\Nc1ccccc1)C12CC3CC(CC(C3)C1)C2)=Nc1ccccc1,60.7 µM,
N#CC1=C(c2ccccc2)NNC(c2ccc(Cl)cc2)CC1=O (centres undefined),> 100 µM,
NCCNCC1CCNCC1,> 100 µM,
c1ccc2c(c1)[nH]c1c2cc[n+]2cc3c(cc12)CCCC3,24.8 µM,4.57 µM
CSC(=Nc1ccccc1)N(c1ccccc1)c1nc(=[N+](C)C)ss1,7.09 µM,

# Test system: SF-268 CNS
# Assay: inhibition of tumour cell growth, NCI panel, 48 h
row,SMILES,TGI
1,C(/C=C(\Nc1ccccc1)C12CC3CC(CC(C3)C1)C2)=Nc1ccccc1,41.1 µM
2,CC1=NN(C(=O)CC(=O)Nc2ccccc2F)C(=O)C1N=Nc1ccccc1[N+](=O)[O-] (centres undefined),> 100 µM
3,N#CC1=C(c2ccccc2)NNC(c2ccc(Cl)cc2)CC1=O (centres undefined),> 100 µM
4,NCCNCC1CCNCC1,> 100 µM
5,c1ccc2c(c1)[nH]c1c2cc[n+]2cc3c(cc12)CCCC3,12.8 µM and 18.3 µM
6,CSC(=Nc1ccccc1)N(c1ccccc1)c1nc(=[N+](C)C)ss1,21.6 µM

# Test system: NCI-H460 lung
# Assay: inhibition of tumour cell growth, NCI panel, 48 h
SMILES,TGI,GI50
C(/C=C(\Nc1ccccc1)C12CC3CC(CC(C3)C1)C2)=Nc1ccccc1,62.6 µM,
N#CC1=C(c2ccccc2)NNC(c2ccc(Cl)cc2)CC1=O (centres undefined),> 100 µM,
NCCNCC1CCNCC1,> 100 µM,
c1ccc2c(c1)[nH]c1c2cc[n+]2cc3c(cc12)CCCC3,4.54 µM and 3.22 µM,1.66 µM
CSC(=Nc1ccccc1)N(c1ccccc1)c1nc(=[N+](C)C)ss1,18.1 µM,

# Test system: UACC-62 melanoma
# Assay: inhibition of tumour cell growth, NCI panel, 48 h
SMILES,TGI,GI50
C(/C=C(\Nc1ccccc1)C12CC3CC(CC(C3)C1)C2)=Nc1ccccc1,25.7 µM,
CC1=NN(C(=O)CC(=O)Nc2ccccc2F)C(=O)C1N=Nc1ccccc1[N+](=O)[O-] (centres undefined),69 µM,
NCCNCC1CCNCC1,> 100 µM,
c1ccc2c(c1)[nH]c1c2cc[n+]2cc3c(cc12)CCCC3,4.97 µM,2.02 µM
CSC(=Nc1ccccc1)N(c1ccccc1)c1nc(=[N+](C)C)ss1,1.74 µM,

# Test system: LOX IMVI melanoma
# Assay: inhibition of tumour cell growth, NCI panel, 48 h
SMILES,TGI,GI50
C(/C=C(\Nc1ccccc1)C12CC3CC(CC(C3)C1)C2)=Nc1ccccc1,28.6 µM,
N#CC1=C(c2ccccc2)NNC(c2ccc(Cl)cc2)CC1=O (centres undefined),> 100 µM,
NCCNCC1CCNCC1,> 100 µM,
c1ccc2c(c1)[nH]c1c2cc[n+]2cc3c(cc12)CCCC3,5.05 µM and 6.75 µM,2.03 µM
